{
  "source": "patent US7569547B2",
  "about": "“Inhibiting furin with polybasic peptides” (Board of Supervisors of Louisiana State University and …, priority 2001, dated 2009)",
  "key": {"recombinant mouse furin": {"molecular_target": "T1, recombinant mouse furin (Mus musculus, UniProt P23188)", "T1 construct": "truncated N-terminally to the transmembrane domain at His^711 using PCR; myc (C, cleaved yes); hexa-His (C, cleaved yes); made in house; host or cells: DG44 CHO cells, conditioned medium", "T1 sequence (P23188 108-714 limits assumed)": "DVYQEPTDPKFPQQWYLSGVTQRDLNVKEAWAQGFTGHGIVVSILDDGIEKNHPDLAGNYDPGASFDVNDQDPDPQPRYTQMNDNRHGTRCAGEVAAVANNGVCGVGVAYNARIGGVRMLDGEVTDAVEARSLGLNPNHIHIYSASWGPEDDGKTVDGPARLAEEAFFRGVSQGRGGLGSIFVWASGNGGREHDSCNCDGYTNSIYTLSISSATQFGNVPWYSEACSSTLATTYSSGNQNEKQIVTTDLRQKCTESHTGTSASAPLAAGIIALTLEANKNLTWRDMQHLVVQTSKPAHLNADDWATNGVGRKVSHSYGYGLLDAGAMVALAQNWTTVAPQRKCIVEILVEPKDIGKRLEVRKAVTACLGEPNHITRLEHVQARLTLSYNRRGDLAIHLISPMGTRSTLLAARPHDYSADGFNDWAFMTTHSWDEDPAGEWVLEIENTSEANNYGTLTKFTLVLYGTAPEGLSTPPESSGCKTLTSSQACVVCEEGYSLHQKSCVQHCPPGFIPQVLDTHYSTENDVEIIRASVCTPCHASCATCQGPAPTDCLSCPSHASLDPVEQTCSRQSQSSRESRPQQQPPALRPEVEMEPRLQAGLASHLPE", "assay": "Furin enzyme assay, hydrolysis of pERTKR-MCA at pH 7.0", "format": "biochemical", "source_text": "Recombinant convertase preparation. The mouse furin clone was a kind gift from K. Nakayama (Fukuoka University School of Medicine, Fukuoka, Japan). The mouse furin cDNA was truncated N-terminally to the transmembrane domain at His^711 using PCR. This PCR product was then subcloned into pcDNA3.1 (−) myc-His (Invitrogen) at the Nhe1 and Xba1 restriction sites. Dihydrofolate-reductase-negative DG44 Chinese Hamster Ovary (CHO) cells (L. Chasin, Columbia University, New York, N.Y.) were transfected using Lipofectin (Life Technologies), and colonies were selected at 37° C. in 5% CO2 in α-MEM (lacking nucleosides) containing 10% well-dialyzed fetal bovine serum (Life Technologies). Conditioned media from colonies were screened using an enzyme assay (see below), and a high-expressing clone was selected. Overexpression of furin was achieved by increasing the methotrexate concentration from 5 nM to 50 μM in five- to ten-fold steps as described in I. Lindberg et al., Methods Neurosci., vol. 23, pp. 94-108 (1995). The amplified lines were tested for increased furin expression by enzyme assay. Once the 50 μM methotrexate level had been reached, cells were split at ratios of 1:6 twice a week. 100 mL of conditioned media (OptiMEM, Life Technologies) containing 100 μg/mL aprotinin (Miles Laboratories, Kankakee, Ill.) was collected from confluent roller bottles every 24 h. The medium was then centrifuged at low speed to remove cells, and the supernatant was stored at −80° C. until use.\nPurification of furin: Conditioned medium was thawed, pooled, and diluted 1:3.5 with buffer A (20 mM HEPES, 0.1% Brij 35, 5 mM CaCl2, pH 7.4), and pumped at 40 mL/min through a Sartorius D100 anion exchange membrane. The membrane was washed with 40 mL of buffer A, followed by 40 mL of buffer A containing 50 mM NaCl, and finally by 40 mL of buffer A containing 200 mM NaCl. The fraction eluting with 200 mM NaCl was diluted 1:4 with buffer A and applied to a 1 mL Pharmacia Mono Q HR5/5 anion exchange column at a flow rate of 1 mL/min. Following a 10 mL wash with buffer A, furin was eluted by a linear increase of 0 to 500 mM NaCl in buffer A over 30 mL; and 2 mL fractions were collected. Fractions containing peak activity were pooled, and 200 μL aliquots were subjected to gel permeation chromatography using a Pharmacia Superose 12 column at a flow rate of 0.5 mL/min of buffer A containing 200 mM NaCl. Fractions were assayed for activity as described below; protein content was determined using the Bradford method. All purification steps were performed at 4° C.\n(§1) Enzyme Assays and Hexapeptide Library Screening. Enzyme assays for PC1 and PC2 were performed at pH 5.0 using pERTKR-MCA (Peptides International Inc., Louisville, Ky.) as described in E. Apletalina et al., J. Biol. Chem., vol. 273, pp. 26589-26595 (1998). The assay for furin was performed using the same substrate at pH 7.0 in 100 mM HEPES, 5 mM CaCl2, 0.1% Brij 35. All assays were performed at 37° C. in a 96 well fluorometer (Labsystems) at an excitation wavelength of 380 nm with emission monitored at a wavelength of 460 nm. The total volume was 50 μL. Unless otherwise stated, the final substrate concentration for all assays was 200 μM. When used in a particular experiment, the inhibitory peptides were pre-incubated with enzyme for 30 min at room temperature prior to addition of substrate. All assays were performed in duplicate or triplicate."}, "PC1 [1]": {"molecular_target": "T2, PC1 (Homo sapiens, UniProt P29120)", "T2 sequence (P29120 111-753)": "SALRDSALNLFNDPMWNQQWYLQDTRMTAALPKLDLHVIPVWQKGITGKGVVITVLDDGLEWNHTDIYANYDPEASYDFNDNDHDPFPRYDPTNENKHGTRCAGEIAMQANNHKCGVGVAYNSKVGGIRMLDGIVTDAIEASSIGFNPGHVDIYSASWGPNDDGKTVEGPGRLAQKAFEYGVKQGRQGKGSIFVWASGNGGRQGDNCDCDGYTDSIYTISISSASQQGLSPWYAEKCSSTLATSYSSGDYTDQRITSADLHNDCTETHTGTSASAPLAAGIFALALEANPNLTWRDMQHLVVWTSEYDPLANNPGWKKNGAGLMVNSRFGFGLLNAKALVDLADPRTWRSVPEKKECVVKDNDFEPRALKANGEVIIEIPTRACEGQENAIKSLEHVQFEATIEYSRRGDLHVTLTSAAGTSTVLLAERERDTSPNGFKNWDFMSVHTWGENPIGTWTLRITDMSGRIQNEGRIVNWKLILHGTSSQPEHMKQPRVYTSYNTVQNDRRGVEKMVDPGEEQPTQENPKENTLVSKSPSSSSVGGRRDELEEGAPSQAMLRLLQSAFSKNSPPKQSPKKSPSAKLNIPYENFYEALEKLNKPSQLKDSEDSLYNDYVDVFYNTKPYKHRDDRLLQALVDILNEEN", "settings": "literature; cited from earlier work"}, "PC2": {"molecular_target": "T3, PC2 (Mus musculus, UniProt P21661)", "T3 sequence (P21661 109-637)": "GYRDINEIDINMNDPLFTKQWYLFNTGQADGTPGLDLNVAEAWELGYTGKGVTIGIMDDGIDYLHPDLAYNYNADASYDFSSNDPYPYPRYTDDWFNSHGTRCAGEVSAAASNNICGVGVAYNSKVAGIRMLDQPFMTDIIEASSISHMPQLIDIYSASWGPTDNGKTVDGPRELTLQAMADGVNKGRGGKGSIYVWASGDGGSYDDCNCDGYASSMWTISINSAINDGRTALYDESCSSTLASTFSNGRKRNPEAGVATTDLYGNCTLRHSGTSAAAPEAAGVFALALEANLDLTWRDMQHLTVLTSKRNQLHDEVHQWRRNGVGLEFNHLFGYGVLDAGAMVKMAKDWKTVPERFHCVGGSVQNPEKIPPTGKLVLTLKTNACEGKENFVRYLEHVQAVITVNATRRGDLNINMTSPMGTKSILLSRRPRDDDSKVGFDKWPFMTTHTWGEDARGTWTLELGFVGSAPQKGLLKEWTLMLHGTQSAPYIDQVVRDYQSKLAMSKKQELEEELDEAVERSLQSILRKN", "assay": "PC2 enzyme assay, hydrolysis of pERTKR-MCA at pH 5.0", "format": "biochemical", "parameters": "made in house", "method": "(§2) The proprotein convertases PC1 and PC2 were prepared by ion exchange chromatography as described in G. Frenette et al., Biochim. Biophys. Acta., vol. 1334, pp. 109-115 (1997).\nas §1"}, "PACE4": {"molecular_target": "T4, PACE4 (Rattus norvegicus, UniProt Q63415)", "T4 construct": "made in house; host or cells: stably transfected hEK-293 cells (gift of R. E. Mains), conditioned medium", "T4 sequence (Q63415 133-937)": "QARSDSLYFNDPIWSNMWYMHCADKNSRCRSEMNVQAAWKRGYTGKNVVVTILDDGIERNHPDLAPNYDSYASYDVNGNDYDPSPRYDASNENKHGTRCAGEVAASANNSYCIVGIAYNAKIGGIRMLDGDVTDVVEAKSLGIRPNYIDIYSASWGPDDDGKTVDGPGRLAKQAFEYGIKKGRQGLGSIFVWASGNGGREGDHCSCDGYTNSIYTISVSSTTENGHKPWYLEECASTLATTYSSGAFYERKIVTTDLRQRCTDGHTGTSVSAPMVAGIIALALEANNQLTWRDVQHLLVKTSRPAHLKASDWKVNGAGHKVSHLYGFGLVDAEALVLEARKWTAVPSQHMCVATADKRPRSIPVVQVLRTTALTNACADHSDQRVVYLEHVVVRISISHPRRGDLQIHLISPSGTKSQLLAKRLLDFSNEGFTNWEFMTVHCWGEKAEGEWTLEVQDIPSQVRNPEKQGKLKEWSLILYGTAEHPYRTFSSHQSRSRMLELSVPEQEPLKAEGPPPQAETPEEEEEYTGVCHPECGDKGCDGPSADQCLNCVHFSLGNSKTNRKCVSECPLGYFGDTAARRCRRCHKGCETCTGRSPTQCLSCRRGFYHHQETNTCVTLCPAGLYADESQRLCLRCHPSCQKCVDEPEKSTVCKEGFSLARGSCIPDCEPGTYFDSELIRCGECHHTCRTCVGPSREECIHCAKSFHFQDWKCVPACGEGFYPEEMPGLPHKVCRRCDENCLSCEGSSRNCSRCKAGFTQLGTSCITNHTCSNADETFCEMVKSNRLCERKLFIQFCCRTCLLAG", "assay": "PACE4 enzyme assay, hydrolysis of pERTKR-MCA", "format": "biochemical", "method": "The proprotein convertase PACE4 was partially purified from an overnight-conditioned medium of stably transfected hEK-293 human embryonic kidney cells (a generous gift of R. E. Mains, Johns Hopkins University School of Medicine, Baltimore, Md.). Briefly, 100 mL of conditioned medium (OptiMEM containing 100 μg/mL aprotinin) was loaded onto an Econo-Pac Q (Bio-Rad) column at 4 mL/min, washed with 10 mL of buffer A, and then eluted with a linear gradient of buffer A containing 500 mM NaCl over 50 mL. The active fractions were then diluted 1:4 with buffer A prior to loading onto a Mono Q column (Pharmacia) at 1 mL/min. The PACE4 was eluted with a linear gradient of buffer A containing 500 mM NaCl over 10 mL. The resulting active fractions were then pooled and stored at −80° C. until use.\nas §1"}, "PC1 [2]": {"molecular_target": "T5, PC1 (Mus musculus, UniProt P63239)", "T5 construct": "made in house", "T5 sequence (P63239 111-753)": "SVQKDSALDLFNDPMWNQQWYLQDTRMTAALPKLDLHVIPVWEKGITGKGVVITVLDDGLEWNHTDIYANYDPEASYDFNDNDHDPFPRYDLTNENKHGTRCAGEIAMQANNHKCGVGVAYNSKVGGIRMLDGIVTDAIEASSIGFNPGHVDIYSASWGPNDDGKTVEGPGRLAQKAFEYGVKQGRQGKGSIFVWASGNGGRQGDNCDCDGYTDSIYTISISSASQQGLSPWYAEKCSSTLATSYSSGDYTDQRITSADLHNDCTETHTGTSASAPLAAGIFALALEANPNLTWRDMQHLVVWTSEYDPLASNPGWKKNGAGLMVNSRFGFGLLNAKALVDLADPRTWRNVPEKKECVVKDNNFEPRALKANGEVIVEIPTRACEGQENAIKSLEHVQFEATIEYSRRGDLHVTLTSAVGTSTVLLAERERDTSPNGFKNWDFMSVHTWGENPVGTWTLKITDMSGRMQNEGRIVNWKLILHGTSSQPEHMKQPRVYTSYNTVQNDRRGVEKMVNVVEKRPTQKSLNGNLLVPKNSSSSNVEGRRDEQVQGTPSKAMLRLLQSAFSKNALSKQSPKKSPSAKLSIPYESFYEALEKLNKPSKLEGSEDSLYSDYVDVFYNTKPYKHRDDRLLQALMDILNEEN", "assay": "biochemical", "format": "biochemical", "method": "as §2, §1"}, "furin": {"molecular_target": "furin (Homo sapiens, UniProt P09958)", "sequence (P09958 108-794)": "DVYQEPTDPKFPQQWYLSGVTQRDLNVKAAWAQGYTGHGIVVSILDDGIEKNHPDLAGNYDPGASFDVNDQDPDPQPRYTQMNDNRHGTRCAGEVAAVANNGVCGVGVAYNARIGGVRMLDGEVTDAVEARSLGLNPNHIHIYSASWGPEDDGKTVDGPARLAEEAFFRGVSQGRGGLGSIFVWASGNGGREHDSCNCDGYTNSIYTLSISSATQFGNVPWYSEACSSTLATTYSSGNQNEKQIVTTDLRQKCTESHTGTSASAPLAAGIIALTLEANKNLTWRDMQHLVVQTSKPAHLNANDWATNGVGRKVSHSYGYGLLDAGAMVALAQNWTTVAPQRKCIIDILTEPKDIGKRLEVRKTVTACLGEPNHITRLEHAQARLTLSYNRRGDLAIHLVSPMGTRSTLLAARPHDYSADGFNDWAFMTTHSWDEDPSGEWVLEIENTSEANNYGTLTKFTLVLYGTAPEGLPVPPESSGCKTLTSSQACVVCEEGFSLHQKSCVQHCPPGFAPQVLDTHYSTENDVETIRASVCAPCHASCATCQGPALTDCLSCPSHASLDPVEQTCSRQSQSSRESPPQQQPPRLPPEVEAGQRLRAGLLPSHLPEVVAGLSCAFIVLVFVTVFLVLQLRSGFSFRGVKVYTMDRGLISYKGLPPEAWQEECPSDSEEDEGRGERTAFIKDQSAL", "settings": "literature, cited from earlier work"}},
  "note": "Residues, ends and D or L forms follow the SMILES beside them. *: point of attachment. CH2Cl = ClC*",
  "data": [
    {"molecule": "CC(=O)N[C@@H](CC(C)C)C(=O)N[C@@H](CC(C)C)C(=O)N[C@@H](CCCNC(=N)N)C(=O)N[C@H](C(=O)N[C@@H](CCCCN)C(=O)N[C@@H](CCCNC(=N)N)C(N)=O)C(C)C", "note": "[Ac-LLRVKR-NH2]", "values": [
      {"measurement": "Ki", "setting": "recombinant mouse furin", "value": "3400 ± 100", "unit": "nM"},
      {"measurement": "Ki / inhibition of PC1, in words", "setting": "PC1 [1]", "value": "nanomolar inhibitor"},
      {"measurement": "Ki", "setting": "PC2", "value": "1000 ± 80", "unit": "nM"}
    ]},
    {"molecule": "N=C(N)NCCC[C@H](NC(=O)[C@H](CCCNC(=N)N)NC(=O)[C@H](CCCNC(=N)N)NC(=O)[C@@H](N)CCCNC(=N)N)C(=O)O", "note": "[Tetra-L-arginine] (H-RRRR-OH)", "values": [
      {"measurement": "Ki", "setting": "PACE4", "value": "> 200000", "unit": "nM"},
      {"measurement": "inhibition of PACE4", "setting": "PACE4; mM concentrations", "value": "not found to inhibit even at mM concentrations"},
      {"measurement": "Ki", "setting": "PC1 [2]", "value": "> 200000", "unit": "nM"},
      {"measurement": "inhibition of PC1", "setting": "PC1 [2]; μM concentrations", "value": "not inhibited"}
    ]},
    {"molecule": "Ac-YEKERSKR-CH2Cl (SMILES CC(=O)N[C@@H](Cc1ccc(O)cc1)C(=O)N[C@@H](CCC(=O)O)C(=O)N[C@@H](CCCCN)C(=O)N[C@@H](CCC(=O)O)C(=O)N[C@@H](CCCNC(=N)N)C(=O)N[C@@H](CO)C(=O)N[C@@H](CCCCN)C(=O)N[C@@H](CCCNC(=N)N)C(=O)CCl) [reference compound]", "values": [
      {"measurement": "Ki against furin, in words", "setting": "furin", "value": "low nM"},
      {"measurement": "Ki / inhibition of PC1, in words", "setting": "PC1 [1]", "value": "low nM"}
    ]},
    {"molecule": "H-RRRRR-OH [Penta-L-arginine]", "values": [
      {"measurement": "Ki", "setting": "PACE4", "value": "980 ± 120", "unit": "nM"},
      {"measurement": "Ki", "setting": "PC1 [2]", "value": "14000 ± 6100", "unit": "nM"}
    ]},
    {"molecule": "decanoyl-RVKR-CH2-AVG-NH2", "values": [
      {"measurement": "Ki", "setting": "furin; read-out: Ki against furin", "value": 3.4, "unit": "nM"}
    ]},
    {"molecule": "α1-PDX: α1-antitrypsin variant with reactive site loop bioengineered to contain a minimal furin consensus sequence [reference compound]", "values": [
      {"measurement": "inhibition of furin", "setting": "recombinant mouse furin; nanomolar α1-PDX concentrations, validation of enzyme preparation", "value": "strongly inhibited"},
      {"measurement": "inhibition of furin", "setting": "furin", "value": "sub-nanomolar range"}
    ]}
  ]
}
